Measurements: US20150072933A1, “NOVEL SEQUENCES FOR THE CONTROL OF REPRODUCTION IN FISH” (Yissum Research Development Company of the Hebrew …, priority 2011, published 2015)
Entries after “also recorded” stand apart in the source; their conditions may differ. Where a SMILES comes first, the peptide text is derived from it.

What was measured:
[1] = system: zfTac3ra; assay: Receptor transactivation assay, SRE-Luc reporter (PKC activation), COS-7 cells expressing zfTac3ra; format: cell-based, zebrafish; conditions: mean ± SEM
Protocol: (§1) In order to study the signaling pathways of the novel zebrafish NKBs, the entire coding regions of zftac3ra (denoted by SEQ ID NO:6) or zftac3rb (denoted by SEQ ID NO:7), or the cDNA clone for human NK3R (obtained from the Missouri S&T cDNA Resource Center, were inserted into pcDNA3.1 (Invitrogen). The luciferase assay was conducted according to Biran et al., 2008 [4] COS-7 cells were grown in DMEM supplemented with 10% FBS, 1% glutamine, 100 U/ml penicillin, and […] streptomycin (Biological Industries) under 5% CO2 until confluent. Cotransfection of either pc-zftac3ra, pc-zftac3rb or pc-Htac3r (at 3 μg/plate), a reporter plasmid (at 2 μg/plate), and pCMV-β-galactosidase (at 1 μg/plate) was carried out with FuGENE 6.0 reagent (Roche). The cells were serum starved for 36 h, stimulated with vehicle or various concentrations of either human (Sigma) or zebrafish NKBs for 6 h, and then harvested and analyzed. Lysates prepared from the harvested cells were assayed for both luciferase activity and β-galactosidase activity, which was used as an internal standard to normalize the luciferase activity directed by the test plasmid. Transfection experiments were performed in triplicate with three independently isolated sets. Protein structure prediction of zebrafish NKBa, NKBb or NKF were performed on I-Tasser servers.
(§2) The response, binding selectivity and signal transduction pathways of the novel tachykinin receptors to their agonists were evaluated by functional expression analysis, using COS-7 cells.
(§3) The NKB analogues (i.e. the NKBa-analog, NKBb-analog and NKF-analog, as denoted by SEQ ID NO. 44-46) were first analyzed in comparison to their native forms in a transactivation assay, using reporter genes for specific signal transduction pathways. To validate the specificity of the serum-responsive element (SRE)-Luc and cAMP-responsive element (CRE)-Luc reporter systems, specific activators for PLC/PKC and AC/PKA signaling pathways were used in control experiments.
(§4) Thus, the ability of the three novel piscine peptides (namely, NKBa, NKBb and NKF, denoted by SEQ ID NO.40, 41 and 42), as well as the ability of the three analogous agonistic peptides, namely, NKBa-analog, NKBb-analog and NKF-analog, to differentially activate the different tac3 receptors, using SRE as a reporter gene that follows PKC activation and CRE as a reporter gene for the PKA pathway, was tested. Human NK3R (human NKB receptor) and human NKB served as controls.

[2] = system: Mature female carp; assay: Gonadotropin release from mature carp in vivo (LH by ELISA)
Protocol: Mature female carp, just before spawning, were injected with NKBa, NKBb and NKF analogues, denoted by SEQ ID NO.44, SEQ ID NO.45 and SEQ ID NO.46, respectively (20 μg/kg body weight). LH levels was measured by specific ELISA, according to Aizen et al. 2012 [33].

[3] = system: zfTac3rb; assay: Receptor transactivation assay, SRE-Luc reporter (PKC activation), COS-7 cells expressing zfTac3rb; format: cell-based, zebrafish; conditions: mean ± SEM
Protocol: as §1, §2, §3, §4

[4] = system: Juvenile Tilapia; assay: Gonadotropin release in vivo from juvenile tilapia (plasma LH and FSH by ELISA); set-up: species or system Tilapia (Oreochromis niloticus)
Protocol: Tilapia females (two-months old) were injected with the NKBa analogue denoted by SEQ ID NO.44 or the NKF analogue denoted by SEQ ID NO.46 at 0.5 or 5 μg/kg body weight (BW). Blood was withdrawn from the caudal vein and plasma Luteinizing hormone (LH) and Follicle-stimulating hormone (FSH) levels were measured using a homologous sensitive enzyme-linked immunosorbent assay (ELISA), as described by Aizen et al. 2007 [33].

[5] = system: zfTac3rb; assay: Receptor transactivation assay, CRE-Luc reporter (PKA activation), COS-7 cells expressing zfTac3rb; format: cell-based, zebrafish; conditions: mean ± SEM
Protocol: as §1, §2, §3, §4

[6] = system: zfTac3ra; assay: Receptor transactivation assay, CRE-Luc reporter (PKA activation), COS-7 cells expressing zfTac3ra; format: cell-based, zebrafish; conditions: mean ± SEM
Protocol: as §1, §2, §3, §4

[7] = system: Tilapia pituitary cells; assay: Gonadotropin release from tilapia pituitary dispersed cells; format: cell-based; conditions: 10 nM, 4 hr
Protocol: Tilapia pituitary cells were subjected to enzymatic dispersion. Pituitary cells were stimulated with 10 nM of the NKBa or NKF analogue, denoted by SEQ ID NO.44 and SEQ ID NO.46, respectively, for 4 hr, when the medium was collected. […] Stimulation of tilapia pituitary cells with GnRH at [10 nM] was used as a control.

[8] = target: T1, huNK3R (Homo sapiens, UniProt P29371); assay: Receptor transactivation assay, SRE-Luc reporter (PKC activation), COS-7 cells expressing human NK3R; format: cell-based
T1 construct: host or cells: COS-7
T1 sequence (P29371 1-465): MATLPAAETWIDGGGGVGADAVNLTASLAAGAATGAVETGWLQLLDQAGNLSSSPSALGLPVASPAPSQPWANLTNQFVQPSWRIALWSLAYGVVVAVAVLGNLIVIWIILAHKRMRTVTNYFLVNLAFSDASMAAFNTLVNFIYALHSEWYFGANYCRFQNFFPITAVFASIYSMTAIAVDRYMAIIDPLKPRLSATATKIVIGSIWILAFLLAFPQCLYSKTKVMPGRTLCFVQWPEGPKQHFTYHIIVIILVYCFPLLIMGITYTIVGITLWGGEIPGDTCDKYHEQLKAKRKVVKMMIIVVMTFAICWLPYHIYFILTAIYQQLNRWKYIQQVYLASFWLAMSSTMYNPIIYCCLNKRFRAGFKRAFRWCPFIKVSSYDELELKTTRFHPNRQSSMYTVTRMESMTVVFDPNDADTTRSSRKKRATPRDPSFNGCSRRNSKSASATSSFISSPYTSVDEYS
Protocol: In order to study the signaling pathways of the novel zebrafish NKBs, the entire coding regions of zftac3ra (denoted by SEQ ID NO:6) or zftac3rb (denoted by SEQ ID NO:7), or the cDNA clone for human NK3R (obtained from the Missouri S&T cDNA Resource Center, were inserted into pcDNA3.1 (Invitrogen). The luciferase assay was conducted according to Biran et al., 2008 [4] COS-7 cells were grown in DMEM supplemented with 10% FBS, 1% glutamine, 100 U/ml penicillin, and 100 mg/ml streptomycin (Biological Industries) under 5% CO2 until confluent. Cotransfection of either pc-zftac3ra, pc-zftac3rb or pc-Htac3r (at 3 μg/plate), a reporter plasmid (at 2 μg/plate), and pCMV-β-galactosidase (at 1 μg/plate) was carried out with FuGENE 6.0 reagent (Roche). The cells were serum starved for 36 h, stimulated with vehicle or various concentrations of either human (Sigma) or zebrafish NKBs for 6 h, and then harvested and analyzed. Lysates prepared from the harvested cells were assayed for both luciferase activity and β-galactosidase activity, which was used as an internal standard to normalize the luciferase activity directed by the test plasmid. Transfection experiments were performed in triplicate with three independently isolated sets.

[9] = target: T1, huNK3R; assay: Receptor transactivation assay, CRE-Luc reporter (PKA activation), COS-7 cells expressing human NK3R; format: cell-based; conditions: Table 5, CRE-Luc follows PKA activation, mean ± SEM
Protocol: In order to study the signaling pathways of the novel zebrafish NKBs, the entire coding regions of zftac3ra (denoted by SEQ ID NO:6) or zftac3rb (denoted by SEQ ID NO:7), or the cDNA clone for human NK3R (obtained from the Missouri S&T cDNA Resource Center, were inserted into pcDNA3.1 (Invitrogen). The luciferase assay was conducted according to Biran et al., 2008 [4] COS-7 cells were grown in DMEM supplemented with 10% FBS, 1% glutamine, 100 U/ml penicillin, and 100 mg/ml streptomycin (Biological Industries) under 5% CO2 until confluent. Cotransfection of either pc-zftac3ra, pc-zftac3rb or pc-Htac3r (at 3 μg/plate), a reporter plasmid (at 2 μg/plate), and pCMV-β-galactosidase (at 1 μg/plate) was carried out with FuGENE 6.0 reagent (Roche). The cells were serum starved for 36 h, stimulated with vehicle or various concentrations of either human (Sigma) or zebrafish NKBs for 6 h, and then harvested and analyzed. Lysates prepared from the harvested cells were assayed for both luciferase activity and β-galactosidase activity, which was used as an internal standard to normalize the luciferase activity directed by the test plasmid. […]
The response, binding selectivity and signal transduction pathways of the novel tachykinin receptors to their agonists were evaluated by functional expression analysis, using COS-7 cells. […]

[10] = system: sexually mature female zebrafish; assay: In vivo effect of NKBs in zebrafish: LH secretion after intraperitoneal injection; conditions: single intraperitoneal injection
Protocol: In vivo studies involved administering NKBa, NKBb or NKF and the analogues thereof, denoted by SEQ ID NO. 40-42 and 44-46, respectively to immature fish (20 fish/treatment). The circulating levels of E2, 11KT, LH and FSH were determined prior to hormonal manipulations, in order to confirm that these fish were indeed sexually immature. The fish were injected intramuscularly (i.m.) or intraperitonealy (i.p.) at various doses. Adult female zebra fish were injected intraperitoneally with 20 pmol/g body weight. Control fish were injected with saline. Plasma samples were collected at time 0, and specific times after the administration of the peptide/s, to determine the levels of E2, 11KT, LH and FSH.
To further characterize the role of the NKB/NKBR system in fish reproduction the in vivo biological function of zebrafish NKB peptides was next examined.

[11] = system: NKB receptors (human NKBR, zebrafish Tac3ra, Tac3rb); assay: Receptor transactivation assay, statements in words across SRE-Luc and CRE-Luc reporters and receptors; format: cell-based; conditions: both zebrafish tac3 receptors, in both signal transduction systems
Protocol: as §1, §2, §4

[12] = target: T2, NKB receptors (human NKBR, zebrafish Tac3ra, Tac3rb) (Homo sapiens, UniProt P29371); assay: as above; format: cell-based; conditions: human NKBR (huNK3R), in both signal transduction systems (SRE-Luc and CRE-Luc)
T2 construct: expressed in transfected cells; host or cells: COS-7
T2 sequence (P29371 1-465): T1 sequence (P29371 1-465)
Protocol: as §1, §2, §4

[13] = Table 7 (native peptides and analogues), PKC activation, read-out: EC50 using SRE, zfTac3ra
[14] = Table 7 (native peptides and analogues), PKC activation, read-out: EC50 using SRE, zfTac3rb
[15] = Juvenile Tilapia, injected at 0.5 or 5 μg/Kg BW
[16] = tilapia females two-months old, injected 5 μg/kg BW, listed as NKF analogue
[17] = Table 6 (native peptides and analogues), PKA activation, read-out: EC50 using CRE-Luc, zfTac3rb
[18] = Table 6 (native peptides and analogues), PKA activation, read-out: EC50 using CRE-Luc, zfTac3ra

**Q.** Which results are given for `CSCC[C@H](NC(=O)[C@H](CC(C)C)NC(=O)CNC(=O)[C@H](C(C)C)N(C)C(=O)[C@H](Cc1ccccc1)NC(=O)[C@H](CO)NC(=O)[C@H](CC(=O)O)NC(=O)CCC(=O)O)C(N)=O` [zfNKF-analog, Succ-Asp-Ser-Phe-N(Me)Val-Gly-Leu-Met-NH2]?
**A.** EC50 [1, 13]: 0.31 nM; LH level ([2]; mature female carp just before spawning, injected 20 μg/kg body weight, listed as NKF analogue): significant elevation; also recorded: increased the level of LH significantly; persistence of the LH effect ([2]; mature female carp, 20 μg/kg body weight, throughout the experiment): remained constant throughout the experiment; EC50 [3, 14]: 0.54 ± 0.39 nM; FSH secretion [4, 15]: significant increase; LH secretion [4, 15]: significant increase; plasma FSH level [4, 16]: significant increase; also recorded: increased significantly; plasma LH level [4, 16]: significant increase; EC50 [5, 17]: 7.75 nM; EC50 [6, 18]: 9.14 ± 1.27 nM; release of FSH from tilapia pituitary cells [7]: significantly increased

**Q.** `CC[C@H](C)[C@H](NC(=O)[C@H](CC(=O)O)NC(=O)[C@H](CC(N)=O)NC(=O)[C@@H](N)Cc1ccc(O)cc1)C(=O)N[C@@H](CC(=O)O)C(=O)N[C@@H](Cc1ccc(O)cc1)C(=O)N[C@@H](CC(=O)O)C(=O)N[C@@H](CO)C(=O)N[C@@H](Cc1ccccc1)C(=O)N[C@H](C(=O)NCC(=O)N[C@@H](CC(C)C)C(=O)N[C@@H](CCSC)C(N)=O)C(C)C` [zfNKF] (H-YNDIDYDSFVGLM-NH2) was tested. Which EC50 ([1]; Table 5, COS-7 cells, SRE-Luc follows PKC activation, read-out: EC50 SRE-Luc zfTac3ra) did it give?
**A.** The EC50 was 0.54 ± 0.13 nM.

**Q.** And the EC50 [1, 13]?
**A.** The EC50 was 0.55 nM.

**Q.** What about the “SRE-driven luciferase activity, response” value ([8]; COS-7 cells transiently transfected with human NK3R) of the same molecule?
**A.** The value was “elicited an increased response”.

**Q.** What about the EC50 ([8]; Table 5, COS-7 cells, SRE-Luc follows PKC activation, mean ± SEM) of the same molecule?
**A.** The EC50 was 0.52 ± 0.18 nM.

**Q.** What about the EC50 [9] of the same molecule?
**A.** Its EC50 is 4.36 ± 1.25 nM.

**Q.** What about the EC50 ([3]; Table 5, COS-7 cells, SRE-Luc follows PKC activation, read-out: EC50 SRE-Luc zfTac3rb) of the same molecule?
**A.** The EC50 was 0.36 ± 0.16 nM.

**Q.** And the EC50 [3, 14]?
**A.** The EC50 was 0.37 ± 0.16 nM.

**Q.** What about the EC50 ([5]; Table 5, COS-7 cells, CRE-Luc follows PKA activation, read-out: EC50 CRE-Luc zfTac3rb) of the same molecule?
**A.** The EC50 was 1.8 ± 1.55 nM.

**Q.** And the EC50 [5, 17]?
**A.** The EC50 was 1.8 nM.

**Q.** What about the LH secretion ([10]; 20 pmol/g body weight, sexually mature female zebrafish) of the same molecule?
**A.** Its LH secretion is “significant increase; also recorded: significant LH secretion”.

**Q.** And the “magnitude of the induced LH discharge” value ([10]; compared with GnRH)?
**A.** The value was “comparable with that observed in response to GnRH”.

**Q.** What about the EC50 ([6]; Table 5, COS-7 cells, CRE-Luc follows PKA activation, read-out: EC50 CRE-Luc zfTac3ra) of the same molecule?
**A.** Its EC50 is 4.94 ± 1.83 nM.

**Q.** What about the EC50 [6, 18] of the same molecule?
**A.** The EC50 was 4.94 ± 1.83 nM.

**Q.** And the “potency” value [11]?
**A.** Its value is “most potent among all tachykinins examined”.

**Q.** And the “potency” value [12]?
**A.** Its value is “high potency”.
